According to patent US20230053688A1, “METHODS TO ALTER LATENCY IN EBV+ MALIGNANCIES” (Cornell University, priority 2020, published 2023):
Counter-ions that a name gives are not always drawn. Like-named read-outs stand apart in the source and are kept apart here.

System: LMP1 expression in Kem I cells
Assay: microbe, parasite or virus in culture
Assay type: cell-based, EBV
Details: for fold induction at 2.5 µM: human gammaherpesvirus 4, 48 h
[1] = read-out: Average LMP1 Fold Increase, Kem I cells, 2.5 uM, 48 hours, average of replicates 1 and 2
[2] = read-out: Replicate 1-LMP1 Fold Increase, Kem I cells, 2.5 uM, 48 hours, fold change in LMP1 transcript vs vehicle
[3] = read-out: Replicate 2-LMP1 Fold Increase, Kem I cells, 2.5 uM, 48 hours, fold change in LMP1 transcript vs vehicle
[4] = Kem I cells, 2.5 uM, 48 hours, average of replicates 1 and 2
[5] = Kem I cells, 2.5 uM, 48 hours, fold change in LMP1 transcript vs vehicle

SMILES | fold induction at 2.5 µM [1] | fold induction at 2.5 µM [2] | fold induction at 2.5 µM [3] | Average LMP1 Fold Increase [4] | Replicate 1-LMP1 Fold Increase [5] | Replicate 2-LMP1 Fold Increase [5] | also measured
CC[C@H](C)C(=O)O[C@H]1C[C@@H](C)C=C2C=C[C@H](C)[C@H](CC[C@@H]3C[C@@H](O)CC(=O)O3)[C@H]21 [Lovastatin] | 0.96 | 0.34 | 1.59 |  |  |  | 
CC(C)CCNC(=O)[C@H](CC(C)C)NC(=O)[C@H]1O[C@@H]1C(=O)O [Loxistatin Acid (E-64C)] |  |  |  | 0.55 | 0.62 | 0.48 | 
C=CCn1c(=O)c2cnc(Nc3ccc(N4CCN(C)CC4)cc3)nc2n1-c1cccc(C(C)(C)O)n1 [MK-1775] | 5.22 | 6.01 | 4.43 |  |  |  | 
Cl.Cl.NC1(c2ccc(-c3nc4ccn5c(=O)[nH]nc5c4cc3-c3ccccc3)cc2)CCC1 [MK-2206 2HCl] |  |  |  | 0.51 | 0.44 | 0.59 | 
C[C@](O)(COc1ccc(C#N)cc1)C(=O)Nc1ccc(C#N)c(C(F)(F)F)c1 [MK-2866 (GTx-024)] |  |  |  | 0.64 | 0.72 | 0.56 | 
O=C(O)Cn1nnc(-c2cc(N3CCC(Oc4cc(F)ccc4Br)CC3)no2)n1 [MK-8245] | 1.17 | 1.51 | 0.84 |  |  |  | 
COc1ccc(CNCc2cccc3ccccc23)cc1.Cl [ML133 HCl] |  |  |  | 0.54 | 0.42 | 0.67 | 
CCCC(=O)Nc1cccc(NC(=O)c2ccccc2Br)c1 [ML161] |  |  |  | 0.83 | 1.11 | 0.54 | 
COc1ccc(-c2cnc3c(-c4cccc5ncccc45)cnn3c2)cc1 [ML347] |  |  |  | 0.34 | 0.19 | 0.49 | 
CC(C)C[C@H](NC(=O)CNC(=O)c1cc(Cl)ccc1Cl)B(O)O [MLN2238] | 112 | 86.8 | 138 |  |  |  | 
O=C(O)c1ccc(Nc2ncc3c(n2)-c2ccc(Cl)cc2C(c2c(F)cccc2F)=NC3)cc1 [MLN8054] | 0.37 | 0.27 | 0.47 |  |  |  | 
CCC(CC)(NC(=O)C(C)C)C(=O)N[C@@H](CCCN=C(N)N)C(=O)NC1(C(=O)NC(c2ccc(F)cc2)c2ccc(F)cc2)CCCC1 [MM-102] |  |  |  | 0.27 | 0.27 | 0.27 | 
S=C=Nc1cccc(NC(=S)NCCCCNC(=S)Nc2cccc(N=C=S)c2)c1 [MRS 2578] |  |  |  | 0.47 | 0.64 | 0.31 | 
COc1cc(-n2c(=S)[nH]c3ccccc3c2=O)c(Cl)cc1Cl [Mdivi-1] |  |  |  | 0.64 | 0.51 | 0.77 | 
CC12CC3CC(C)(C1)CC(N)(C3)C2 [Memantine HCl] | 0.42 | 0.55 | 0.3 |  |  |  | 
Nc1nc(CC(=O)Nc2ccc(CCNC[C@H](O)c3ccccc3)cc2)cs1 [Mirabegron] | 0.75 | 0.74 | 0.76 |  |  |  | 
O=C(NCCN1CCOCC1)c1ccc(Cl)cc1 [Moclobemide (Ro 111163)] |  |  |  | 0.55 | 0.28 | 0.81 | 
Cc1ccccc1C(=O)Nc1ccc(C(=O)N2CCCC(N(C)C)c3ccccc32)cc1 (stereo not drawn) [Mozavaptan] | 0.61 | 0.32 | 0.9 |  |  |  | 
FC(F)(F)c1ccc(/C=C/c2nc(COc3ccc(CCCCn4ccnn4)cc3)co2)cc1 [Mubritinib (TAK 165)] |  |  |  |  |  |  | Average LMP1 Fold Increase: 0.68; Replicate 1-LMP1 Fold Increase: 0.74; Replicate 2-LMP1 Fold Increase: 0.62
CCCCCCCCCCCCCCCCn1cc[n+](Cc2ccccc2)c1C.[I-] [NH125] |  |  |  | 0.70 | 0.94 | 0.46 | 

SMILES | fold induction at 2.5 µM [1] | fold induction at 2.5 µM [2] | fold induction at 2.5 µM [3] | Average LMP1 Fold Increase [4] | Replicate 1-LMP1 Fold Increase [5] | Replicate 2-LMP1 Fold Increase [5] | also measured
Cc1cc(OCc2nnc(SC3CCCC3)n2-c2cccnc2)ccc1-c1ccc(S(C)(=O)=O)cc1 [NMS-873] | 1 | 1.05 | 0.95 |  |  |  | 
CC(C)(Cc1ccc2ccccc2c1)NC[C@@H](O)COc1cccc(Cl)c1C#N [NPS-2143] |  |  |  | 0.74 | 0.87 | 0.62 | 
Cc1ccc(S(=O)(=O)c2ccc([N+](=O)[O-])o2)cc1 [NSC697923] |  |  |  | 0.09 | 0.10 | 0.09 | 
CCN(CC)CCCC(C)Nc1nc(C)cc(Nc2ccc3nc(C)cc(N)c3c2)n1 (stereo not drawn) [NSC 23766] |  |  |  | 0.82 | 0.62 | 1.01 | 
C/C(=N\NC(=S)N1CCC1)c1ccccn1 [NSC 319726] |  |  |  | 19.87 | 7.26 | 32.48 | 
CCCC(C)NC(=O)c1ccc(Cl)c(Cl)c1 (stereo not drawn) [NSC 405020] |  |  |  | 0.39 | 0.50 | 0.28 | 
O=c1cc(N2CCOCC2)oc2c1ccc1ccccc12 [NU7026] |  |  |  | 0.77 | 0.47 | 1.07 | 
Nc1ncnc2c1c(-c1cccc(OCc3ccccc3)c1)cn2C1CC(CN2CCCC2)C1 (stereo not drawn) [NVP-ADW742] |  |  |  | 0.40 | 0.27 | 0.53 | 
COc1ccccc1N1CCN(CC(O)COc2cccc3ccccc23)CC1 (stereo not drawn) [Naftopidil] | 1.15 | 1.36 | 0.95 |  |  |  | 
O=C1CC[C@@]2(O)[C@H]3Cc4ccc(O)c5c4[C@@]2(CCN3CC2CC2)[C@H]1O5 [Naltrexone HCl] | 0.27 | 0.34 | 0.19 |  |  |  | 
COc1ccc2cc([C@H](C)C(=O)O)ccc2c1 [Naproxen] | 0.62 | 0.69 | 0.56 |  |  |  | 
OC(CNCC(O)C1CCc2cc(F)ccc2O1)C1CCc2cc(F)ccc2O1 (stereo not drawn) [Nebivolol] | 1.16 | 0.83 | 1.49 |  |  |  | 
CN1C(=O)C(Cc2c[nH]c3ccccc23)NC1=S (stereo not drawn) [Necrostatin-1] |  |  |  | 1.08 | 0.99 | 1.17 | 
Cc1cn(-c2cc(NC(=O)c3ccc(C)c(Nc4nccc(-c5cccnc5)n4)c3)cc(C(F)(F)F)c2)cn1 [Nilotinib (AMN-107)] |  |  |  | 0.27 | 0.20 | 0.33 | 
COC(=O)C1=C(C#N)NC(C)=C(C(=O)OC(C)C)C1c1cccc([N+](=O)[O-])c1 (stereo not drawn) [Nilvadipine] | 0.72 | 0.96 | 0.47 |  |  |  | 
Cc1c(Cc2ccc3ccccc3n2)c2cc(F)ccc2n1CC(=O)O [OC000459] | 0.56 | 0.64 | 0.48 |  |  |  | 
C#Cc1cccc(Nc2ncnc3cc(OCCOC)c(OCCO)cc23)c1 [OSI-420] |  |  |  | 0.66 | 0.84 | 0.49 | 
C[C@]1(O)C[C@@H](c2nc(-c3ccc4ccc(-c5ccccc5)nc4c3)c3c(N)nccn32)C1 [OSI-906 (Linsitinib)] |  |  |  | 0.81 | 0.68 | 0.94 | 
NCC(=O)Nc1ccc(-n2nc(C(F)(F)F)cc2-c2ccc3c(ccc4ccccc43)c2)cc1 [OSU-03012 (AR-12)] |  |  |  | 0.95 | 0.79 | 1.12 | 
Cc1sc2c(c1C)C(c1ccc(Cl)cc1)=N[C@@H](CC(=O)Nc1ccc(O)cc1)c1nnc(C)n1-2 [OTX015] | 0.63 | 0.14 | 1.12 |  |  |  | 
